What was measured:
Settings in all cases: method of the corresponding examples
HL-60 cells [1] = assay: apoptosis-inducing activity to HL-60 cells; format: cell-based, human
Description: (2) The cyclopentenone prepared in Example 2-(1) was used for preparing aqueous solutions of the cyclopentenone in the concentrations of 2.86 mM, 955 μM, 318 μM, 106 μM, 35 μM, 12 μM and […]. Then said heat-treated substance was adjusted to pH 7.0 with NaOH and the apoptosis-inducing activity to HL-60 cells was measured as follows.
To 1.35 ml of this suspension was added 0.15 ml of the above-mentioned cyclopentenone solution and the mixture was incubated at […] for 20 hours in the presence of 5% of carbon dioxide gas.

[2] = tested on: human promyelocytic leukemia cells HL-60; assay: MTT cell growth inhibition, optically active cyclopentenones; format: cell-based
Description: An ethanolic solution (1 mg/ml) of each of the (-)- and (+) -cyclopentenoneobtained in Example 16 was diluted with a 75% aqueous ethanol solution to an extent of 2, 4, 8, 16, 32, 64, 128, 256, 512, 1024 and 2048-fold and each 5 μl of them was charged in each of the wells of a 96-well microtiter plate followed by drying with air. An RPMI 1640 medium (100 μl) containing 10% fetal bovine serum containing 5000 human promyelocytic leukemia cells HL-60 (ATCC CCL-240) was added to each well and incubated at 37° C. for 48 hours in the presence of 5% of carbon dioxide gas. After observing the morphology of the cells under an optical microscope, 10 μl of phosphate buffered saline containing 5 mg/ml of 3-(4,5-dimethylthiazol-2-yl)-2,5-diphenyltetrazolium bromide (MTT; manufactured by Sigma) thereto, an incubation was conducted for additional four hours and the growth state of the cells was observed under a microscope. Further, 100 μl of 2-propanol containing 0.04N HCl was added thereto followed by well stirring and an absorbance at 590 nm was measured and defined as the degree of cell growth.

HL-60 cells [3] = assay: cancer cell differentiation (Wright-Giemsa stain); format: cell-based, human
Description: (2) To HL-60 cells was added 10^-4 μg/ml of the cyclopentenone and an incubation by the same manner as in Example 15-(1) was conducted for three days. […] The result was that the differentiated cells were around 10% in the control where no cyclopentenone was added while, in the fractions to which the cyclopentenone was added, 50% or more cells were differentiated to monocyte- or to macrophage-like cells.
The result was that the differentiated cells were around 10% in the control where no cyclopentenone was added while, in the fraction to which 0.005 μg/ml of the cyclopentenone was added, 25% or more cells were differentiated to mature bone marrow cells.

[4] = antibacterial activity of optically active cyclopentenones; format: cell-based

Row | Compound | apoptosis inducing activity (HL-60 cells [1]) | cell growth inhibition [2] | cancer cell differentiation inducing activity (HL-60 cells [3]) | antibacterial activity [4]
1 | O=C1C=C[C@@H](O)[C@@H]1O (single isomer, unassigned) [(+)-trans-cyclopentenone, (+)-trans-4,5-dihydroxy-2-cyclopenten-1-one] | apoptosis inducing activity | cell growth inhibiting activity | cancer cell differentiation inducing activity | antibacterial activity
2 | O=C1C=C[C@@H](O)[C@@H]1O (single isomer, unassigned) [(-)-trans-cyclopentenone, (-)-trans-4,5-dihydroxy-2-cyclopenten-1-one] | apoptosis inducing activity | cell growth inhibiting activity | cancer cell differentiation inducing activity | antibacterial activity
3 | O=C1C=CC(O)C1O (single isomer, unassigned; (+)) [(+)-cis-cyclopentenone] | apoptosis inducing activity | cell growth inhibiting activity | cancer cell differentiation inducing activity | antibacterial activity
4 | O=C1C=CC(O)C1O (single isomer, unassigned; (-)) [(-)-cis-cyclopentenone] | apoptosis inducing activity | cell growth inhibiting activity | cancer cell differentiation inducing activity | antibacterial activity
